Source: patent publication EP4793274A1, “SALT AND CRYSTAL FORM OF KIF18A INHIBITOR COMPOUND, PREPARATION METHOD THEREFOR AND USE THEREOF” (Hubei Bio-Pharmaceutical Industrial Technological Institute …, priority 2023, dated 2025)

How the values were obtained:
[1] = Hygroscopicity by dynamic vapor sorption (DVS); type: physicochemical; conditions: 25 °C/80% RH
Description: Dynamic vapor sorption (DVS) curves were acquired on a DVS IntrInsic from Surface Measurement Systems (SMS). The relative humidity at 25 °C was corrected with the deliquescence points of LiCl, Mg(NO3)2, and KCl. Table A-5. DVS test parameters
The percentage changes in mass of the samples when the humidity changed (0% RH to 95% RH) at a constant temperature of 25 °C were collected. 157-166.

[2] = Solubility at room temperature in water, SGF and FaSSIF (HPLC concentration, pH of filtrate, XRPD of residual solid); conditions: listed as Crystal form B of p-toluenesulfonate; for S: solubility: feeding concentration 1 mg/mL; for pH: pH of filtrate
Description: 100 mg of NaCl and 50 mg of Triton X-100 were weighed into a 50 mL volumetric flask and then completely dissolved by addition of purified water. 816 µL of 1 M hydrochloric acid was added, and the pH was adjusted to 1.8 with 1 M hydrochloric acid or 1 M NaOH solution. The mixed solution was brought to the volume by addition of purified water.
340 mg of anhydrous NaH2PO4 and 620 mg of NaCl were weighed into a 100 mL volumetric flask, and then completely dissolved by addition of purified water. 55.44 µL of a 50% NaOH solution was then added, and the pH was adjusted to 6.5 with 1 M hydrochloric acid or 1 M NaOH solution. The mixed solution was brought to the volume by addition of purified water. Subsequently, 110 mg of SIF powder was weighed into a 50 mL volumetric flask and completely dissolved in the solution described above, and the mixed solution was brought to the volume.
Solids at a feeding concentration of 1 mg/mL (calculated based on free crystal form) were rotationally mixed with corresponding vehicles at room temperature. […] After sampling at each time point, the samples were centrifuged (at 10000 rpm) and filtered (through a 0.22 µm PTFE filter head), the HPLC concentrations and pH values of the filtrates were determined, and the centrifuged solid samples were subjected to XRPD analysis.

[3] = Solid state stability (XRPD and HPLC purity); type: physicochemical
Description: 167-171. […] Table C-3. Summary of solid state stability evaluation

[4] = Dynamic solubility at 37 °C in H2O, SGF, FaSSIF and FeSSIF (HPLC concentration, pH of filtrate, XRPD of residual solid); type: physicochemical; conditions: listed as Crystal form B of p-toluenesulfonate; for S: solubility: feeding concentration 10 mg/mL; for FC: crystal form change: XRPD of residual solid; for pH: pH of filtrate
Description: 0.82 mL of glacial acetic acid and 1.18 g of NaCl were added to a 100 mL volumetric flask and completely dissolved by addition of purified water.
The solubility of each sample in H2O, SGF, FaSSIF, and FeSSIF was determined at different time points (1 h, 2 h, 4 h, and 24 h). […] 137-156. […] Table C-2. Summary of dynamic solubility test results at 37 °C

[5] = 80 °C/sealed, 1 day, listed as Crystal form B of p-toluenesulfonate

**Q.** What does the source list for `Cc1cc(-c2cnn(-c3ccc(NS(=O)(=O)CCO)cc3N3CCC4(CC3)CC4)c2)nc(N2CCC(F)(F)CC2)n1` [crystal form B of the p-toluenesulfonate]?
**A.** vapor sorption values [1]: 0.171%; S: solubility ([2]; FaSSIF, 2 h, 120 min): 85.8 µg/mL; S: solubility ([2]; FaSSIF, 24 h, 1440 min): 37.8 µg/mL; S: solubility ([2]; H2O, 24 h, 1440 min): 0.1 µg/mL; S: solubility ([2]; SGF, 2 h, 120 min): 41.3 µg/mL; S: solubility ([2]; SGF, 24 h, 1440 min): 19.7 µg/mL; pH ([2]; FaSSIF, 2 h): 6.5; pH ([2]; FaSSIF, 24 h): 6.4; pH ([2]; H2O, 2 h): 3.4; pH ([2]; H2O, 24 h): 2.8; pH ([2]; SGF, 2 h): 1.9; pH ([2]; SGF, 24 h): 1.8; HPLC results Relative to starting (%) ([3]; 25 °C/60% RH/open, 1 week): 100.0%; HPLC results Purity (area%) ([3]; 25 °C/60% RH/open, 1 week, listed as Crystal form B of p-toluenesulfonate): 98.27 area%; HPLC results Relative to starting (%) ([3]; 40 °C/75% RH/open, 1 week): 100.0%; HPLC results Purity (area%) ([3]; 40 °C/75% RH/open, 1 week, listed as Crystal form B of p-toluenesulfonate): 98.25 area%; HPLC results Purity (area%) [3, 5]: 98.28 area%; HPLC results Relative to starting (%) [3, 5]: 100.0%; HPLC results Purity (area%) ([3]; Starting, listed as Crystal form B of p-toluenesulfonate): 98.28 area%; Crystal form ([3]; XRPD after 25 °C/60% RH/open, 1 week, listed as Crystal form B of p-toluenesulfonate): Crystal form B of p-toluenesulfonate; Crystal form ([3]; XRPD after 40 °C/75% RH/open, 1 week, listed as Crystal form B of p-toluenesulfonate): Crystal form B of p-toluenesulfonate; Crystal form ([3]; XRPD after 80 °C/sealed, 1 day, listed as Crystal form B of p-toluenesulfonate): Crystal form B of p-toluenesulfonate; S: solubility ([4]; FaSSIF, 1 h, 60 min): 61.4 µg/mL; S: solubility ([4]; FaSSIF, 2 h, 120 min): 51.7 µg/mL; S: solubility ([4]; FaSSIF, 4 h, 240 min): 22.2 µg/mL; S: solubility ([4]; FaSSIF, 24 h, 1440 min): 16.3 µg/mL; S: solubility ([4]; FeSSIF, 1 h, 60 min): 182.8 µg/mL; S: solubility ([4]; FeSSIF, 2 h, 120 min): 166.5 µg/mL; S: solubility ([4]; FeSSIF, 4 h, 240 min): 159.9 µg/mL; S: solubility ([4]; FeSSIF, 24 h, 1440 min): 81.4 µg/mL; S: solubility ([4]; H2O, 1 h, 60 min): 2.7 µg/mL; S: solubility ([4]; H2O, 2 h, 120 min): 2.5 µg/mL; S: solubility ([4]; H2O, 4 h, 240 min): 1.9 µg/mL; S: solubility ([4]; H2O, 24 h, 1440 min): 1.5 µg/mL; S: solubility ([4]; SGF, 1 h, 60 min): 56.8 µg/mL; S: solubility ([4]; SGF, 2 h, 120 min): 45.6 µg/mL; S: solubility ([4]; SGF, 4 h, 240 min): 23.3 µg/mL; S: solubility ([4]; SGF, 24 h, 1440 min): 18.1 µg/mL; FC: crystal form change ([4]; FaSSIF, 1 h): Yes; FC: crystal form change ([4]; FaSSIF, 2 h): Yes; FC: crystal form change ([4]; FaSSIF, 4 h): Yes; FC: crystal form change ([4]; FaSSIF, 24 h): Yes; FC: crystal form change ([4]; FeSSIF, 1 h): Yes; FC: crystal form change ([4]; FeSSIF, 2 h): Yes; FC: crystal form change ([4]; FeSSIF, 4 h): Yes; FC: crystal form change ([4]; FeSSIF, 24 h): Yes; FC: crystal form change ([4]; H2O, 1 h): Yes; FC: crystal form change ([4]; H2O, 2 h): Yes; FC: crystal form change ([4]; H2O, 4 h): Yes; FC: crystal form change ([4]; H2O, 24 h): Yes; FC: crystal form change ([4]; SGF, 1 h): Yes; FC: crystal form change ([4]; SGF, 2 h): Yes; FC: crystal form change ([4]; SGF, 4 h): Yes; FC: crystal form change ([4]; SGF, 24 h): Yes; pH ([4]; FaSSIF, 1 h): 2.92; pH ([4]; FaSSIF, 2 h): 2.84; pH ([4]; FaSSIF, 4 h): 2.74; pH ([4]; FaSSIF, 24 h): 2.68; pH ([4]; FeSSIF, 1 h): 4.68; pH ([4]; FeSSIF, 2 h): 4.66; pH ([4]; FeSSIF, 4 h): 4.68; pH ([4]; FeSSIF, 24 h): 4.74; pH ([4]; H2O, 1 h): 2.17; pH ([4]; H2O, 2 h): 2.17; pH ([4]; H2O, 4 h): 2.09; pH ([4]; H2O, 24 h): 1.95; pH ([4]; SGF, 1 h): 1.64; pH ([4]; SGF, 2 h): 1.63; pH ([4]; SGF, 4 h): 1.60; pH ([4]; SGF, 24 h): 1.59
